Experiments:
[1] = system: Sprague-Dawley rats; test: Blood pressure study in L-NAME (nitric oxide deficient) model of hypertension, dietary OPP; assay type: in vivo, rat
Source text: In order to determine the effect of OPP in blood pressure reduction, a method utilizing a nitric oxide (NO) deficient model of hypertension was used. This animal model involves the inhibition of endogenous NO production with L-NAME (N^G-nitro-L-arginine methyl ester) that leads to elevation in BP.
12 weeks old Sprague-Dawley rats were fed a standard laboratory rat diet, formulated to contain low n-3 polyunsaturated fatty acids (Glen Forrest Stock feeders, Glen Forrest, W.A., Australia). The OPP was provided as a drink at a rate of 30 ml/rat/day. OPP were provided at two different strengths—as liquid (1500 GAE) and in a concentrated liquid form at 3000 GAE (prepared using the freeze-dried preparation at 30,000 GAE). Rats were pre-treated for four weeks prior to challenge with L-NAME. […]
BP was monitored fortnightly by standard photoelectric tail-cuff procedure (IITC, Life Sciences, Woodlands Hills, Calif., USA) as described in detail previously. […] The pulse was detected as the cuff pressure was reduced and the pressure at which the first pulse detected was taken as the systolic blood pressure and computed automatically (IITC software package). The ambient temperature was carefully controlled (30° C.) and the average of 3-4 readings was taken as the final reading.

[2] = system: human LDL; test: Copper-mediated LDL oxidation, conjugated diene formation; assay type: biochemical; conditions: for Lag time (mins), conjugated diene formation: control LDL 67 ± 12, means ± SD
Description: Blood from six healthy normocholesterolemic adult volunteers was collected into vacutainer tubes containing EDTA and centrifuged (1000×g for 15 min) to isolate plasma. LDL was isolated by density gradient centrifugation in a Beckman Ultracentrifuge using a 50.2 Ti rotor, based on the method of Sundram et al. (2). The LDL layer following sequential isolation at density 1.063 kg/L was removed and dialyzed against 4 L of PBS, pH 7.4 and purged with nitrogen for 12-18 h. After dialysis, the cholesterol concentration in the pooled LDL sample was determined using an automated Cholesterol assay. The LDL fraction was used immediately or immediately stored under nitrogen at 4° C. and analyzed for LDL oxidation within 48 h.
To evaluate the ability of OPP to inhibit copper (Cu) mediated LDL oxidation, conjugated dienes (CD) were continually monitored at 5-min intervals at 37° C. by UV absorption at 234 nm. LDL oxidation was initiated by addition of copper sulfate at a final concentration of 6 μmol/L to 90 μg of LDL cholesterol in a final volume of 1 mL. The purified test compounds (catechin obtained from Sigma Chemical) and OPP extracts were added immediately before the addition of the oxidant. The extracts were added at a final concentration range of 0.25-1.0 μmol/L GAB and the purified compounds at a final concentration of 0.25 or 0.5 μmol/L. All LDL oxidations were performed in triplicate. The lag time in the presence or absence of the test compounds was determined as the intercept of the slopes for the lag and propagation phases. This was compared with the control oxidized LDL to determine the percentage of LDL oxidation inhibition.

Molecule | initial rise in BP on introduction of L-NAME ([1]; L-NAME 10 mg/Kg, OPP pre-treatment 4 weeks) [mmHg] | final BP values ([1]; conclusion of experiment, L-NAME 10 then 15 mg/Kg, OPP drink 30 ml/rat/day, tail-cuff systolic BP, n=12) [mmHg] | Lag time (mins), conjugated diene formation ([2]; 0.25 μmol/L) [min] | LDL lag phase lengthened / increase in lag time relative to control LDL ([2]; 0.5 μmol/L) [%] | Lag time (mins), conjugated diene formation ([2]; 0.5 μmol/L) [min]
COC(=O)[C@@H](N)CCCNC(=N)N[N+](=O)[O-] [L-NAME, N^G-nitro-L-arginine methyl ester] | 18 | 176±2.5 | – | – | –
catechin | – | – | 87 ± 13 | 55 | 104 ± 10

From US8771764B2, “Composition and method for improving vascular health” (Malaysian Palm Oil Board, priority 2009, dated 2014)
